# Values quoted from earlier work as cited in patent publication US10632083B2, “Ophthalmic compositions” (SaCSh Corp., priority 2016, dated 2020).
smiles,measurement,setting,value
"[H]/N=C(\N/C(=N/[H])NCCCCCCNC(=N)NC(=N)Nc1ccc(Cl)cc1)Nc1ccc(Cl)cc1 [chlorhexidine, N,N″″1,6-Hexanediylbis[N′-(4-chlorophenyl)(imidodicarbonimidic diamide)]]",eye damage after topical chlorhexidine accidentally got into the eyes,"Tabor et al. 1989, four cases",irreversible corneal damage
same,eye damage after accidental application to patients undergoing eye surgery,"van Rij et al. 1995, led to bullous keratopathy, all affected patients required corneal transplant",immediate corneal edema
